Reference: ChEMBL document CHEMBL5724558, “Image-based profiling of drug vulnerabilities in CRC organoids” (2024)
Values joined by “and” are separate entries in the source; they are usually repeats but may differ in a detail not shown here. Equal entries are not always repeated.

How the values were obtained:
Format in all cases: functional, Homo sapiens
Set-up in all cases: dose or concentration left out as unconfirmed
Colon cancer organoid [1] = assay: Image-based profiling of donated chemical probes and chemogenomic kinase set in O06 CRC organoid. Image analysis is performed on the sum area metric, and the data were normalized to the DMSO control. After imaging the organoid viability is measured using the OneGloEX Luciferase Assay System. The normalized viability data and sum area are reported.
Colon cancer organoid [2] = assay: Image-based profiling of donated chemical probes and chemogenomic kinase set in O09 CRC organoid. Image analysis is performed on the sum area metric, and the data were normalized to the DMSO control. After imaging the organoid viability is measured using the OneGloEX Luciferase Assay System. The normalized viability data and sum area are reported.
Colon cancer organoid [3] = assay: Image-based profiling of donated chemical probes and chemogenomic kinase set in O21 CRC organoid. Image analysis is performed on the sum area metric, and the data were normalized to the DMSO control. After imaging the organoid viability is measured using the OneGloEX Luciferase Assay System. The normalized viability data and sum area are reported.

SMILES	Cell Viability (Colon cancer organoid [1]; Replication number 1)	Cell Viability (Colon cancer organoid [1]; Replication number 2)	Cell Viability (Colon cancer organoid [2]; Replication number 1)	Cell Viability (Colon cancer organoid [2]; Replication number 2)	Cell Viability (Colon cancer organoid [3]; Replication number 1)	Cell Viability (Colon cancer organoid [3]; Replication number 2)
Cc1sc2c(c1C)C(c1ccc(Cl)cc1)=N[C@@H](CC(=O)NCCCCCCCCNC(=O)COc1cccc3c1C(=O)N(C1CCC(=O)NC1=O)C3=O)c1nnc(C)n1-2 (stereo partly drawn)	4.9545% and 11.7664%	6.03% and 10.6824%	79.9563% and 42.1947%	86.5792% and 48.4637%	41.9399% and 81.7113%	36.361% and 51.9272%
Cn1c(=O)[nH]c2cc(N3C(=O)c4cccc5c(CCCO)ccc(c45)C3=O)ccc21	78.0892% and 58.7114%	114.692% and 105.151%	172.196% and 101.777%	101.158% and 94.3617%	119.202% and 111.104%	123.504% and 100.955%
COc1ccccc1-c1cc(Nc2cccc(CS(N)(=O)=O)c2)ncn1	93.0282% and 99.0402%	104.398% and 112.494%	75.7277% and 70.3132%	83.1557% and 105.011%	89.4274% and 95.331%	104.034% and 107.665%
COCCc1ccc(-c2c(C)nc3c(N4CCOCC4)ccnn23)cn1 [JNJ-42396302]	105.08% and 93.5817%	103.056% and 100.227%	173.111% and 114.826%	149.141% and 104.184%	87.7084% and 77.6404%	105.989% and 98.0422%
CC1=C(C#N)C(c2ccc3c(c2)c(NC(=O)c2ccccc2C)nn3C)C(C#N)=C(C)N1 [BAY-974]	84.6822% and 93.2084%	111.085% and 112.763%	82.726% and 84.3377%	101.367% and 119.752%	90.5008% and 96.0543%	89.8417% and 122.959%
CC(=O)Nc1cccc(-n2c(=O)n(C3CC3)c(=O)c3c(Nc4ccc(I)cc4F)n(C)c(=O)c(C)c32)c1 [TRAMETINIB]	5.765% and 5.759%	5.411% and 4.125%	7.185% and 14.6007%	7.6439% and 10.8886%	17.3032% and 24.3122%	17.3841% and 17.3982%
CCCOc1ccn2c(C(C)=O)cc(-c3ccccc3S(C)(=O)=O)c2c1	138.616% and 118.389%	149.88% and 120.685%	82.358% and 82.5348%	234.066% and 124.865%	106.031% and 126.388%	99.7688% and 110.084%
CNC(=O)c1ccc(Nc2ncc(C(F)(F)F)c(NCc3nccnc3N(C)S(C)(=O)=O)n2)cc1 [DEFACTINIB]	124.45% and 120.141%	102.609% and 90.0207%	29.7376% and 36.5543%	24.312% and 22.1979%	89.1869% and 86.74%	98.5669% and 117.347%
O=C1CCc2cc(Nc3cc(OC4CCOCC4)c([N+](=O)[O-])cc3Cl)ccc2N1	92.8758% and 110.539%	96.13% and 100.681%	197.242% and 145.978%	128.806% and 115.663%	105.584% and 104.204%	94.4034% and 103.061%
COc1cccc2c1C(=O)c1c(O)c3c(c(O)c1C2=O)CC(O)(C(=O)CO)CC3OC1CC(N)C(O)C(C)O1.Cl (stereo not drawn)	10.231% and 27.4494%		17.7261%	21.2234%	24.67% and 46.8716%	19.9524% and 41.0435%
CNC(=O)c1cc(C(=O)NC2CC2)cn(Cc2ccccc2)c1=O [GSK620]	87.0029% and 102.753%	87.2683% and 118.693%	52.8448% and 80.6552%	55.7609% and 83.862%	98.0477% and 88.9414%	114.221% and 102.991%
Cc1cc(F)c(C(=O)Nc2cccc(-c3nncn3C(C)C)n2)cc1-n1cnc(C2CC2)c1 [SELONSERTIB]	102.175% and 96.1469%	88.4921% and 93.9846%	115.111% and 84.0268%	104.846% and 82.0651%	96.1672% and 86.9686%	76.8515% and 83.4833%
CC(=O)C1=C(C)N(c2cccc(C(F)(F)F)c2)C(=O)N[C@H]1c1ccc(C#N)nc1 [BAY-677]	100.678% and 123.419%	118.859% and 107.077%	129.525% and 109.185%	133.262% and 97.2618%	113.516% and 88.4864%	88.4804% and 82.1429%
O=C(Nc1cccnc1)c1cc(-c2ccnc(F)c2)ccc1OCc1ccccc1	114.96% and 114.62%	124.178% and 97.892%	214.708% and 117.189%	126.13% and 109.87%	112.865% and 104.808%	105.956% and 96.1497%
COc1cc(-c2cn([C@H]3CCc4c(F)cccc4N(CC(F)(F)F)C3=O)nn2)ccc1-n1cnc(C)c1	98.6748% and 98.829%	105.811% and 104.708%	81.2479% and 97.2392%	40.0152% and 77.6926%	110.846% and 137.969%	98.2534% and 104.592%
C[C@@H](c1cccc(CN)c1)n1cc(Cl)cc(C(N)=O)c1=N.Cl	106.874% and 116.842%	95.2274% and 108.361%	102.95% and 110.479%	109.454% and 89.4132%	113.852% and 117.315%	85.2053% and 83.6166%
Cc1cnc(Nc2ccc(F)cc2Cl)nc1-c1c[nH]c(C(=O)N[C@H](CO)c2cccc(Cl)c2)c1	3.326% and 7.634%		6.582% and 13.6138%		28.1046% and 23.9721%	23.785% and 21.0148%
COc1cc(Nc2nccc(-c3cnn4nc(OC)ccc34)n2)cc(C(F)(F)F)c1	24.0396% and 55.0969%	25.0029% and 51.7745%	18.7716% and 22.0247%	18.9351% and 21.2081%	43.8285% and 81.0407%	69.763% and 98.0422%
C[C@@H]1CCN(C(=O)CC#N)C[C@@H]1N(C)c1ncnc2[nH]ccc12.O=C(O)CC(O)(CC(=O)O)C(=O)O [TOFACITINIB CITRATE]	54.8894% and 73.0004%	74.5746% and 82.0566%	230.679% and 101.979%	85.7625% and 94.2129%	116.988% and 133.24%	108.318% and 111.695%
COc1ccccc1C(=O)Nc1cc2c(cc1N1CCCC1)n(C)c(=O)n2C	152.076% and 120.081%	178.087% and 127.616%	131.649% and 89.49%	142.608% and 94.0767%	97.0271% and 91.1169%	104.009% and 97.7327%
CCC(F)(F)c1cc(N2CCC(S(C)(=O)=O)CC2)nc2sc(C(N)=O)c(N)c12 [BI-605906]	130.001% and 116.599%	81.7833% and 117.011%	110.631% and 99.0371%	105.468% and 104.877%	102.215% and 104.22%	98.7028% and 111.659%
